Assay results reported in patent US20110195116A1, “RATE MODULATED DELIVERY OF DRUGS FROM A COMPOSITE DELIVERY SYSTEM” (ADCOCK INGRAM HEALTHCARE PTY LIMITED, priority 2008, published 2011).
Structures can show the parent of a compound that is named as a salt. Where two headings read alike, the source gives them in different places.

Tests used:
[1] = cited from earlier work
[2] = dissolution study, USP paddle, phosphate buffer pH 6.8; format: physicochemical
Experimental: Initial dissolution characteristics of the combined APIs paracetamol, tramadol hydrochloride and diclofenac potassium; individual and combined cellulose and ethylene oxide-based polymers were determined by producing experimental batches of tablets. These were produced on a Manesty Single Punch Type F3 machine by direct compression and wet granulation techniques into monolithic matrix and multi-layered systems, as shown in FIG. 1. In situ crosslinking of various alginate, pectin and eudragit polymers with salts such as zinc gluconate was also investigated for an influence on the release characteristics of the solid dosage system.
(§1) Dissolution studies were conducted using a USP rotating paddle method (Hanson Virtual Instruments SR8 Plus Dissolution Test Stations) at 50 rpm in phosphate buffer pH 6.8 (900 mL, 37° C.±0.5° C.) for each formulation employing an autosampler (Hanson Research Auto Plus Maximiser and AutoPlus™ MultiFill™). Samples of 1.6 mL were withdrawn over a period of 12 to 20 hours and analysed via HPLC. Release profiles in simulated gastric fluid pH 1.2 without pepsin over a period of four hours were determined to identify any site-specific release induced by the polymers. The dissolution studies were performed under the conditions described in Table 1.

[3] = in vivo; cited from earlier work
[4] = dissolution study, USP paddle, simulated gastric fluid pH 1.2 without pepsin; format: physicochemical; details: cellulose, polyethylene oxide and alginate polymer formulations
Experimental: as §1
The alginate and zinc gluconate addition was then included in a formulation where the HEC and HPC had been further reduced to 45.31 mg and 90.6 mg respectively (FIG. 16).
In order to establish the potential site-specific release potential of the polymeric dosage form, formulations consisting of cellulose, polyethylene oxide and alginate polymers were subjected to dissolution studies in simulated gastric fluid pH 1.2 without pepsin.

[5] = dosage form with pectin, alginate and eudragit polymers crosslinked with metallic salts

O=C(O)Cc1ccccc1Nc1c(Cl)cccc1Cl [Diclofenac]
water solubility ([1]; at pH 6.8): 0.187%

CC(=O)Nc1ccc(O)cc1 [Paracetamol]
release kinetics [2, 5]: first-order | water solubility ([1]; at 20° C.): 1.4%

COc1cccc(C2(O)CCCCC2CN(C)C)c1 (stereo not drawn) [Tramadol]
elimination half-life (t1/2) [3]: 6 h

O=C(O)Cc1ccccc1Nc1c(Cl)cccc1Cl [diclofenac potassium]
release kinetics ([2]; cellulose and polyethylene oxide-based formulation compressed as layered dosage form): zero-order | release kinetics ([2]; cellulose and polyethylene oxide-based formulation compressed as monolithic matrix): first-order | release kinetics [2, 5]: zero-order | release in simulated gastric fluid [4]: not released

COc1cccc(C2(O)CCCCC2CN(C)C)c1 (stereo not drawn) [tramadol hydrochloride]
release kinetics [2, 5]: first-order
